Measurements as given in patent US20080268477A1, “Antibody Reactive Specifically to Age Derived from 3,4-Dge” (JMS CO., LTD., priority 2005, published 2008).

What was measured:
BSA [1] = biological target: T1, BSA (Bos taurus, UniProt P02769); assay: ELISA for known AGEs (pentosidine, CML, MRX) in reaction product; design: species or system bovine
T1 construct: purchased SIGMA A-0281
Method: With respect to the above-mentioned sample solutions obtained using the carbonyl compounds (3,4-DGE, 3-DG, GO, and MGO), it was evaluated by ELISA whether pentosidine, carboxymethyllysine (CML), and Maillard reaction products (MRX: 8-hydroxy-5-methyldihydrothiazolo[3,2-alpha]) that were known AGEs had been produced or not. As a result, in the reaction solution obtained using GO, production of CML of 3.025 molecules per BSA molecule was found already after 24 hours incubation and production of CML of 3.7 molecules per BSA molecule was found after 168 hours incubation. In the reaction solution obtained using MGO, pentosidine of 0.0028 molecule per BSA molecule was found after 168 hours incubation. […] Accordingly, it can be said that the AGEs formed with 3,4-DGE are clearly different from conventionally known AGEs.

BSA [2] = biological target: T1, BSA; assay: appearance (browning) of reaction solution of carbonyl compound and BSA; design: species or system bovine; conditions: 25 mM carbonyl compound, BSA 5 mg/ml, 37° C.; for browning of reaction solution: 168 hours
Method: AGEs were formed from proteins, BSA, using carbonyl compounds (3,4-DGE, MGO, GO, 3-DG, and Glu). First, BSA (manufactured by SIGMA; Trade Name: A-0281) was dissolved in PBS (pH 7.4) so as to have a concentration of 5 mg/ml (6.2 mM of basic amino acid residues). Thus a BSA solution was prepared. Then each carbonyl compound was added to the BSA solution so as to have a concentration of 25 mM (4-equivalent relative to the basic amino acid residues in the BSA). This was incubated at 37° C. for predetermined times (2, 4, 8, 24, 72, and 168 hours). The respective carbonyl compounds used herein were 500 mM 3,4-DGE aqueous solution (prepared in house), 40% MGO aqueous solution (manufactured by SIGMA), 40% GO aqueous solution (manufactured by Wako Pure Chemical Industries, Ltd.), 3-DG (manufactured by Dojindo Laboratories Co., Ltd.), and Glu (Pharmacopeia, manufactured by San-ei Sucrochemical Co, Ltd.). The BSA solution was incubated in the same manner as described above, with no carbonyl compounds being added thereto. This was used as a control. The appearances of the reaction solutions obtained after 168 hours incubation are shown in the photograph in FIG. 9.

[3] = tested on: Human peritoneal mesothelial cells (HPMCs); assay: cytotoxic test of AGE-proteins (WST-1); assay type: cell-based; conditions: 1 mg/mL AGE-protein, four days
Method: In order to examine the biological activities of AGE-proteins derived from various carbonyl compounds, a cytotoxic test was carried out. The AGE-proteins used herein were 3,4-DGE-BSA, MGO-BSA, GO-BSA, and AA-BSA that had been prepared in the same manner as in Example 3.
Human peritoneal mesothelial cells (HPMCs) that had been suspended in FBS-M199 medium were seeded into a 96-well plate (manufactured by Iwaki) in an amount of 3400 cells/well and then were cultured overnight. Adherent cells in each well were exposed to M199 medium (0.1 ml/well) containing 8.4% FBS in which AGE-proteins had been dissolved in such a manner as to be 1 mg/mL, and were cultured for four days. After completion of the exposure, the medium was removed. Thereafter, the adherent cells were cultured in M199 medium containing a 10% chromogenic substrate (Trade Name: WST-1; manufactured by TAKARA BIO, INC.). Then the absorbance at a wavelength of 450 nm was measured 40 minutes later and thereby the viable cell count was determined. The result is shown in the graph in FIG. 15. In FIG. 15, “DGE-BSA” denotes “3,4-DGE-BSA”.

BSA [4] = biological target: T1, BSA; assay: SDS-PAGE of reaction product; design: species or system bovine; conditions: samples of 2 to 168 hours reaction
Method: The samples obtained using 3,4-DGE and MGO each were subjected to SDS-PAGE. The results are shown in the electrophoretograms in FIG. 13. […] The lanes show the results with respect to the molecular-weight marker, native BSA, and samples (2, 4, 8, 24, 72, and 168 hours) sequentially from the left.

BSA [5] = biological target: T1, BSA; assay: reactivity with protein by fluorescence intensity (Reference Example 2); design: species or system bovine; conditions: 30 mmol/L carbonyl compound, BSA 10 mg/ml, 37° C., 24 hours
Method: BSA was dissolved in PBS (pH 7.4) so as to be 10 mg/ml. Various carbonyl compounds each were added thereto in such a manner as to have a concentration of 30 mmol/L. Then they were allowed to react at 37° C. for 24 hours. After the reaction, denaturation (AGE formation) of the BSA was evaluated according to the fluorescence intensity (at an excitation wavelength of 360 nm and a fluorescence wavelength of 430 nm) of the reaction solutions.

BSA [6] = biological target: T1, BSA; assay: isoelectric focusing of reaction product; design: species or system bovine; conditions: reaction product with BSA
Method: A pI marker was electrophoresed beforehand and then a calibration curve between pI and mobility was created. Then the aforementioned sample solutions also were electrophoresed. With a region stained deepest in each sample being taken as the center of the band, the isoelectric point was calculated using the calibration curve.

BSA [7] = biological target: T1, BSA; assay: fluorescence intensity of reaction solution of carbonyl compound and BSA (Reference Example 1); design: species or system bovine; conditions: excitation 360 nm, fluorescence 430 nm
Method: AGEs were formed from proteins, BSA, using carbonyl compounds (3,4-DGE, MGO, GO, 3-DG, and Glu). First, BSA (manufactured by SIGMA; Trade Name: A-0281) was dissolved in PBS (pH 7.4) so as to have a concentration of 5 mg/ml (6.2 mM of basic amino acid residues). Thus a BSA solution was prepared. Then each carbonyl compound was added to the BSA solution so as to have a concentration of 25 mM (4-equivalent relative to the basic amino acid residues in the BSA). This was incubated at 37° C. for predetermined times (2, 4, 8, 24, 72, and 168 hours). […]
The reaction solutions incubated as described above were sampled and these reaction solutions thus sampled were applied to desalting columns (Trade Name: PD-10, manufactured by Amersham Pharmacia Biotech) to be desalted. With respect to the reaction solutions thus desalted, the BSA concentration was measured using BCA protein assay kit (manufactured by Pierce). […] Then the fluorescence intensity was measured at an excitation wavelength of 360 nm and a fluorescence wavelength of 430 nm (measuring apparatus: Trade Name SPECTRAFLUOR PLUS, manufactured by TECAN). […]

BSA [8] = biological target: T1, BSA; assay: amino acid analysis of Arg and Lys residues in reaction product; design: species or system bovine; conditions: residual ratio vs untreated native BSA
Method: The aforementioned sample solutions were freeze-dried and then were acid-hydrolyzed in 6N hydrochloric acid (120° C., 24 hours). According to a conventionally known method, these were derivatized with dansyl chloride and were isolated with HPLC. Then the amounts of arginine (Arg) and lysine (Lys) residues in the samples were determined (n=3). FIG. 11(A) is a graph showing the residual ratios of the Arg residues, while FIG. 11(B) is a graph showing the residual ratios of the Lys residues. The residual ratio indicates a percentage that is obtained with the amount of residues in untreated native BSA being taken as 100%.

T1 sequence (P02769 25-607): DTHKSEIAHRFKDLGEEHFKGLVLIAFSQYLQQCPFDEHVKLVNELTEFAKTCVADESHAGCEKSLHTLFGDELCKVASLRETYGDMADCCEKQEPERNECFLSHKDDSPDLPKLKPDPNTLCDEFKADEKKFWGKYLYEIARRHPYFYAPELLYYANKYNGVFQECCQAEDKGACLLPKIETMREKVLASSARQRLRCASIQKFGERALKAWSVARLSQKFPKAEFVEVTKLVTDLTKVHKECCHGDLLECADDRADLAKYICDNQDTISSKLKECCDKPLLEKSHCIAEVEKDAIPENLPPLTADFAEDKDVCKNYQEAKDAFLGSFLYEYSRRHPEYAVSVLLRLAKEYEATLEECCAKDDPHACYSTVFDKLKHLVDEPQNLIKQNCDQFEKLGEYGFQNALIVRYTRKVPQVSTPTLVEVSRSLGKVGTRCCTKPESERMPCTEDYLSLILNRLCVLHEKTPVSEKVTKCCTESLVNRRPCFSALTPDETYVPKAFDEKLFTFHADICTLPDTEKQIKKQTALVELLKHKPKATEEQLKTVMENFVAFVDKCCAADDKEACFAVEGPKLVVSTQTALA

CC(=O)C=O [MGO, methylglyoxal]
pentosidine (BSA [1]; after 168 hours incubation): 0.0028 molecule per BSA molecule | browning of reaction solution (BSA [2]): observed

3,4-DGE-BSA: AGE-protein formed from bovine serum albumin with 3,4-DGE
activity of the cells (viable cell count) [3]: approximately 25%

O=CC(=O)C[C@H](O)[C@H](O)CO [Example 3-DG, 3-deoxyglucosone]
browning of reaction solution (BSA [2]): observed

O=CC=O [GO, glyoxal]
production of CML (BSA [1]; after 24 hours incubation): 3.025 molecules per BSA molecule | production of CML (BSA [1]; after 168 hours incubation): 3.7 molecules per BSA molecule | browning of reaction solution (BSA [2]): observed

O=CC(=O)C=CC(O)CO (stereo not shown) [3,4-DGE, 3,4-dideoxyglucosone-3-ene]
change in SDS-PAGE band (BSA [4]): disturbance in the band is observed after 2 to 4 hours reaction | production of CML, pentosidine, MRX (BSA [1]; ELISA of reaction solution): production of neither CML, pentosidine, or MRX was found | time until reaction solution was colored (BSA [2]): approximately two | browning of reaction solution (BSA [2]): deep brown | fluorescence of BSA solution (AGE formation) (BSA [5]): very strong fluorescence | change in isoelectric point (BSA [6]): shift toward the acidic side after 24 hours reaction | reaction time at which fluorescence nearly achieved equilibrium (BSA [7]): ~24 h | fluorescence intensity (BSA [7]; compared to other carbonyl compounds): very high fluorescence intensity | free Arg and Lys residues in reaction product (BSA [8]): reduced
